Measured values from ChEMBL document CHEMBL5316338, “Discovery of Novel PTP1B Inhibitors with Once-Weekly Therapeutic Potential for Type 2 Diabetes: Design, Synthesis, and In Vitro and In Vivo Investigations of BimBH3 Peptide Analogues” (J Med Chem, 2023).
The source made the active and inactive calls. The rule behind the calls is not given here. Square brackets hold non-standard residues; d marks the D form. Peptide text beside a SMILES is read from it. * marks the point of attachment. ξ: configuration not given here. C22 diacid = O=C(O)CCCCCCCCCCCCCCCCCCCCC(=O)*; C20 diacid = O=C(O)CCCCCCCCCCCCCCCCCCC(=O)*; ξR = N=C(N)NCCCC(N)C(=O)O

Tests used:
Mus musculus [1] = experiment: Antidiabetic activity against C57BL/Ks db/db mouse assessed as redcution in fasting blood glucose level at 1 umol/kg, sc administered once a week and measured on day 24 by glucometer analysis (reference value: 30.2 +/- 3.2 […]); assay type: functional; conditions: dose 1 µmol/kg, time 24 day
[2] = Stability of compound assessed as Proteinase K (unknown origin) mediated compound degradation by measuring fold change of half-life by HPLC analysis relative to BimBH312-mer peptide; assay type: ADME
[3] = target: T1, Tyrosine-protein phosphatase non-receptor type 1 (Homo sapiens, UniProt P18031); experiment: Inhibition of N-terminal His tagged recombinant human PTP1B expressed in Escherichia coli using pNPP as substrate assessed as substrate hydrolysis
T1 sequence (P18031 whole entry): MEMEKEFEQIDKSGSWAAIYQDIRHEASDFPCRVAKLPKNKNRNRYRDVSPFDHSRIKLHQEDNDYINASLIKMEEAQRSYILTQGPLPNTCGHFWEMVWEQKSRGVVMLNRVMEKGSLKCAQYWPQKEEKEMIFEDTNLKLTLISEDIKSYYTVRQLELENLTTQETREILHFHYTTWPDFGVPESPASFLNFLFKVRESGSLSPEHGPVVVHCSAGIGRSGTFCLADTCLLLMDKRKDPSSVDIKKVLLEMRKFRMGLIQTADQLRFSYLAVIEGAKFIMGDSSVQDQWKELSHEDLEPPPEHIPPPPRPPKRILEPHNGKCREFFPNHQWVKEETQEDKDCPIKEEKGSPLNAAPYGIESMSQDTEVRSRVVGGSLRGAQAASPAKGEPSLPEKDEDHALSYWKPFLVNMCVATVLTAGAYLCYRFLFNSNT

[4] = Stability of compound assessed as Pepsin (unknown origin) mediated compound degradation by measuring fold change of half-life by HPLC analysis relative to BimBH312-mer peptide; assay type: ADME; conditions: human
Mus musculus [5] = experiment: Antidiabetic activity against over-night fasted C57BL/ks db/db mouse assessed as suppression of increased blood glucose concentration at 1 uM/kg, sc pretreated with compound for 4 weeks followed by insulin stimulation and measured for 90 mins by insulin tolerance test; assay type: functional, organism-based; conditions: time 40410.0 min
Proteinase K = experiment: Stability of compound assessed as Proteinase K (unknown origin) mediated compound degradation by measuring half-life by HPLC analysis; assay type: ADME
[6] = target: T2, Tyrosine-protein phosphatase non-receptor type 2 (Homo sapiens) (UniProt P17706); experiment: Inhibition of recombinant human TC-PTP (1 to 314 residues) expressed in baculovirus infected insect cells using pNPP as substrate assessed as substrate hydrolysis at 50 umol/L relative to control; conditions: Insect cell, dose 50.0 µmol/L
T2 sequence (whole entry): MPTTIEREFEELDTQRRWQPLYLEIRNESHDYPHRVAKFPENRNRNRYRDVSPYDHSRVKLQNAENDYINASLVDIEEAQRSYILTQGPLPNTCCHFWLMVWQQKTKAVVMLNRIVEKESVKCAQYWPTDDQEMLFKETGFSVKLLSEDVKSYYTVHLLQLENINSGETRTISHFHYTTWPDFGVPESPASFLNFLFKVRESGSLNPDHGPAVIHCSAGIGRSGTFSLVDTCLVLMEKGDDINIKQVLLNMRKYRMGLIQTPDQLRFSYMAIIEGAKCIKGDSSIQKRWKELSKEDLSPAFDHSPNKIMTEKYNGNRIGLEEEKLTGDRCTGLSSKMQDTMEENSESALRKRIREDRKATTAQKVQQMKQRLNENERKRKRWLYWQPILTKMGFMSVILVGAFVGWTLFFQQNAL

chymotrypsin [7] = target: chymotrypsin (Homo sapiens, UniProt P17538+P40313+Q6GPI1+Q99895); experiment: Stability of compound assessed as chymotrypsin (unknown origin) mediated compound degradation by measuring half-life by RP-HPLC analysis; assay type: ADME, protein assay
Carboxypeptidase A1 = target: T3, Carboxypeptidase A1 (Homo sapiens, UniProt P15085); experiment: Stability of compound assessed as carboxypeptidase A (unknown origin) mediated compound degradation by measuring fold change of half-life by RP-HPLC analysis relative to BimBH312-mer peptide; assay type: ADME
T3 sequence (P15085 whole entry): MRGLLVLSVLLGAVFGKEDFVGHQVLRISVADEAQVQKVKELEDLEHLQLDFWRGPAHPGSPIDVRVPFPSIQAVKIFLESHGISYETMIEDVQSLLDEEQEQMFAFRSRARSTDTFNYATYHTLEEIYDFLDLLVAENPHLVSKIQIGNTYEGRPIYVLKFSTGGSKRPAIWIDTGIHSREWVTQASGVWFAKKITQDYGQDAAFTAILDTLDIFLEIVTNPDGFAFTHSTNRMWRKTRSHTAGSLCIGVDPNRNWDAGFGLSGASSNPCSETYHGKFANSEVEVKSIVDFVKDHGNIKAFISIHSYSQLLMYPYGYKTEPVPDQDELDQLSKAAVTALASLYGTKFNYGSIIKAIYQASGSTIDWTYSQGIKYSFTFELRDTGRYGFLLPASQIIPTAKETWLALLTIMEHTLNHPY

Mus musculus [8] = experiment: Antidiabetic activity against sc dosed C57BL/Ks db/db mouse assessed as reduction in glucagon level at 1 umol/kg by ELISA analysis; assay type: functional, organism-based; conditions: dose 1.0 µmol/kg
Mus musculus [9] = experiment: Antidiabetic activity against sc dosed C57BL/Ks db/db mouse assessed as reduction in C-peptide level at 1 umol/kg by ELISA analysis; assay type: functional, organism-based; conditions: dose 1.0 µmol/kg
Mus musculus [10] = experiment: Antidiabetic activity against C57BL/Ks db/db mouse assessed as redcution in fasting blood glucose level at 1 umol/kg, sc administered once a week and measured on day 26 by glucometer analysis (reference value: 31.4 +/- 2.2 […]); assay type: functional; conditions: dose 1 µmol/kg, time 26 day
Chymotrypsin [11] = target: Chymotrypsin (Homo sapiens, UniProt Q99895+P17538+P40313+Q6GPI1); experiment: Stability of compound assessed as chymotrypsin (unknown origin) mediated compound degradation by measuring fold change of half-life by RP-HPLC analysis relative to BimBH312-mer peptide; assay type: ADME, protein assay
Mus musculus [12] = experiment: Antidiabetic activity against over-night fasted C57BL/ks db/db mouse assessed as suppression of increased blood glucose concentration at 1 uM/kg, sc pretreated with compound for 4 weeks followed by oral glucose stimulation and measured upto 120 mins by oral glucose tolerance test; assay type: functional, organism-based; conditions: time 40440.0 min
[13] = target: T4, Tyrosine-protein phosphatase non-receptor type 2 (Homo sapiens, UniProt P17706); experiment: Inhibition of recombinant human TC-PTP (1 to 314 residues) expressed in baculovirus infected insect cells using pNPP as substrate assessed as substrate hydrolysis; design: species or system Insect cell
T4 sequence (P17706 whole entry): T2 sequence (whole entry)

Mus musculus [14] = experiment: Antidiabetic activity against C57BL/Ks db/db mouse assessed as redcution in fasting blood glucose level at 1 umol/kg, sc administered once a week and measured on day 8 by glucometer analysis (reference value: 27.7 +/- 3.7 […]); assay type: functional; conditions: dose 1 µmol/kg, time 8 day
Mus musculus [15] = experiment: Antidiabetic activity against C57BL/Ks db/db mouse assessed as redcution in fasting blood glucose level at 1 umol/kg, sc administered once a week and measured on day 15 by glucometer analysis (reference value: 27.3 +/- 2.4 […]); assay type: functional; conditions: dose 1 µmol/kg, time 15 day
Homo sapiens = species on record: Homo sapiens; experiment: Selectivity index, ratio of IC50 for inhibition of recombinant human TC-PTP (1 to 314 residues) expressed in baculovirus infected insect cells to IC50 for inhibition of N-terminal His-tagged recombinant human PTP1B expressed in Escherichia coli
carboxypeptidase A = target: T5, carboxypeptidase A (Homo sapiens, UniProt P15085); experiment: Stability of compound assessed as carboxypeptidase A (unknown origin) mediated compound degradation by measuring half-life by RP-HPLC analysis; assay type: ADME
T5 sequence (P15085 whole entry): T3 sequence (P15085 whole entry)

Mus musculus [16] = experiment: Antidiabetic activity against C57BL/Ks db/db mouse assessed as redcution in fasting blood glucose level at 1 umol/kg, sc administered once a week and measured on day 28 by glucometer analysis (reference value: 32.4 +/- 1.1 […]); assay type: functional; conditions: dose 1 µmol/kg, time 28 day
Pepsin = experiment: Stability of compound assessed as Pepsin (unknown origin) mediated compound degradation by measuring half-life by HPLC analysis; assay type: ADME; conditions: human
[17] = target: T6, Tyrosine-protein phosphatase non-receptor type 1 (Homo sapiens) (UniProt P18031); experiment: Inhibition of N-terminal His tagged recombinant human PTP1B expressed in Escherichia coli using pNPP as substrate assessed as substrate hydrolysis at 40 umol/L relative to control; conditions: dose 40.0 µmol/L
T6 sequence (whole entry): T1 sequence (P18031 whole entry)

Mus musculus [18] = experiment: Antidiabetic activity against sc dosed C57BL/Ks db/db mouse assessed as reduction in serum insulin level at 1 umol/kg by ELISA analysis; assay type: functional, organism-based; conditions: dose 1.0 µmol/kg
Mus musculus [19] = experiment: Antidiabetic activity against C57BL/Ks db/db mouse assessed as redcution in fasting blood glucose level at 1 umol/kg administered subcutaneously and measured immediately by glucometer analysis (reference value: 19.0 +/- 2.7 […]); assay type: functional; conditions: dose 1 µmol/kg; route sc
Mus musculus [20] = experiment: Antidiabetic activity against C57BL/Ks db/db mouse assessed as redcution in fasting blood glucose level at 1 umol/kg, sc administered once a week and measured on day 22 by glucometer analysis (reference value: 27.4 +/- 1.8 […]); assay type: functional; conditions: dose 1 µmol/kg, time 22 day

| SMILES | Fasting blood glucose level (Mus musculus [1]) | fold change (FC) [2] | IC50 [3] | fold change (FC) [4] | Activity (Mus musculus [5]) | half-life (Proteinase K) | inhibition [6] | half-life (chymotrypsin [7]) | fold change (FC) (Carboxypeptidase A1) | Activity (Mus musculus [8]) | Activity (Mus musculus [9]) | Fasting blood glucose level (Mus musculus [10]) | fold change (FC) (Chymotrypsin [11]) | Activity (Mus musculus [12]) | IC50 [13] | Fasting blood glucose level (Mus musculus [14]) | Fasting blood glucose (Mus musculus [15]) | Ratio IC50 (Homo sapiens) | half-life (carboxypeptidase A) | Fasting blood glucose level (Mus musculus [16]) | further results |
| --- | --- | --- | --- | --- | --- | --- | --- | --- | --- | --- | --- | --- | --- | --- | --- | --- | --- | --- | --- | --- | --- |
| CC[C@H](C)[C@H](NC(=O)CCCCCCCCCCCCCCCCCCC(=O)O)C(=O)N[C@@H](C)C(=O)N[C@@H](CCC(N)=O)C(=O)N[C@@H](CCC(=O)O)C(=O)N[C@@H](CC(C)C)C(=O)N[C@@H](CCCNC(=N)N)C(=O)NC(CCCNC(=N)N)C(=O)N[C@H](C(=O)NCC(=O)N[C@@H](CC(=O)O)C(=O)N[C@@H](CCC(=O)O)C(=O)N[C@@H](Cc1ccccc1)C(=O)O)[C@@H](C)CC (some centres undefined) ({C20 diacid}-IAQELR[ξR]IGDEF-OH) | 16 mmol/L | 18 | 443 nM | 69.1 | Active | 0.9 h | < 50% | 0.5 h | 7.8 | Active | Active | 19 mmol/L | 11.6 | Active | > 50000 nM | 11.3 mmol/L | 9.7 mmol/L | > 113 | 0.25 h | 19.2 mmol/L | half-life (Pepsin): 1.52 h; inhibition [17]: > 50%; Activity (Mus musculus [18]): Active; Fasting blood glucose level (Mus musculus [19]): 18.6 mmol/L |
| CC[C@H](C)[C@H](NC(=O)CCCCCCCCCCCCCCCCCCCCC(=O)O)C(=O)N[C@@H](C)C(=O)N[C@@H](CCC(N)=O)C(=O)N[C@@H](CCC(=O)O)C(=O)N[C@@H](CC(C)C)C(=O)N[C@@H](CCCNC(=N)N)C(=O)NC(CCCNC(=N)N)C(=O)N[C@H](C(=O)NCC(=O)N[C@@H](CC(=O)O)C(=O)N[C@@H](CCC(=O)O)C(=O)N[C@@H](Cc1ccccc1)C(=O)O)[C@@H](C)CC (some centres undefined) ({C22 diacid}-IAQELR[ξR]IGDEF-OH) | 16 mmol/L | 10.2 | 200 nM | 64.1 | Active | 0.51 h | < 50% | 6.81 h | 40 | Active | Active | 19.7 mmol/L | 158.4 | Active | > 50000 nM | 11.5 mmol/L | 11 mmol/L | > 250 | 1.28 h | 17 mmol/L | Fasting blood glucose level (Mus musculus [20]): 11.4 mmol/L; half-life (Pepsin): 1.41 h; inhibition [17]: > 50%; Activity (Mus musculus [18]): Active; Fasting blood glucose level (Mus musculus [19]): 19.7 mmol/L |
